Values quoted from earlier work, collected in patent publication US11992479B2, “R-fadrozole for use in the treatment of aldostonerism” (priority 2018, dated 2024).
Where a name gives a salt, the structure may show the parent alone.

Assays:
basal plasma aldosterone = settings: twice daily, healthy male subjects; cited from earlier work
plasma aldosterone = settings: 0.5 and 1.0 mg twice a day, PA patients; cited from earlier work
[1] = phase I study; cited from earlier work
DOC = settings: PA patients, cited from earlier work

Row | Compound | effect on basal plasma aldosterone levels (basal plasma aldosterone) | effect on serum potassium (basal plasma aldosterone) | decrease of plasma aldosterone (plasma aldosterone) | elimination half-life [1] | time to peak concentration [1] | DOC mean level (DOC; 1.0 mg twice-daily dose) | increase of DOC (DOC; twice-daily dosing)
1 | N#Cc1ccc(C2CCCc3cncn32)cc1 (racemic) [Fadrozole hydrochloride] | only modestly affect basal plasma aldosterone levels | without significantly elevating serum potassium | – | – | – | – | –
2 | N#Cc1ccc([C@H]2CCc3cncn32)c(F)c1 [LCI699] | – | – | 70-80% | approximately 4 hours | 1 h | 9.8 ng/mL | over 700%
